These are literature values, as cited in article PMC11354262 (International Journal of Molecular Sciences, 2024).

For data set [1] the following is noted: hydrolysis by enzymes in intestine and liver.

For `CCCCCCCCCCCCCCCC(=O)NCCO` [PEA, Palmitoylethanolamide], the “logarithm of partition coefficient (log P)” value is given as above 5 and the “solubility in water” value is given as “practically insoluble in water”. For the same molecule, in data set [1], the lipid half-life entry is recorded as “about 25 min”.
